# From PubChem BioAssay (NCI)
#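 Growth conditions: 96-well plates. Treatment: test compound, 48 hours, 5 concentrations. Analysis: linear interpolation between bracketing concentrations; unreached endpoints set to highest concentration. GI50 = concentration required for 50% inhibition of growth. TGI is the concentration that stops growth completely.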
# How the values were obtained:
# Experiment in all cases: DTP human tumour cell line panel, 48 h
# PC-3 prostate = tested on: PC-3 prostate
# A549 NSCLC = tested on: A549 NSCLC
# HL-60(TB) leukemia = tested on: HL-60(TB) leukemia
# T-47D breast = tested on: T-47D breast
# SK-MEL-2 melanoma = tested on: SK-MEL-2 melanoma
# SF-268 CNS = tested on: SF-268 CNS
# DU-145 prostate = tested on: DU-145 prostate
# EKVX NSCLC = tested on: EKVX NSCLC
# SNB-19 CNS = tested on: SNB-19 CNS
# SNB-75 CNS = tested on: SNB-75 CNS
# MDA-MB-435 = tested on: MDA-MB-435
# KM12 colon = tested on: KM12 colon
# MDA-MB-468 breast = tested on: MDA-MB-468 breast
# HS 578T breast = tested on: HS 578T breast
# UACC-257 melanoma = tested on: UACC-257 melanoma
# NCI-H460 lung = tested on: NCI-H460 lung
# HCC-2998 colon = tested on: HCC-2998 colon
# SF-539 CNS = tested on: SF-539 CNS
# LOX IMVI melanoma = tested on: LOX IMVI melanoma
# 786-0 renal = tested on: 786-0 renal
# HCT-15 colon = tested on: HCT-15 colon
# HOP-62 NSCLC = tested on: HOP-62 NSCLC
# K-562 leukemia = tested on: K-562 leukemia
# MCF7 breast = tested on: MCF7 breast
# HT29 colon = tested on: HT29 colon
# UACC-62 melanoma = tested on: UACC-62 melanoma
# SR leukemia = tested on: SR leukemia
# NCI-H226 lung = tested on: NCI-H226 lung
# OVCAR-3 ovarian = tested on: OVCAR-3 ovarian
compound,measurement,setting,value
O=C(Nc1ccc(F)c(Cl)c1)c1cc(-c2ccc(F)cc2F)ccc1O,GI50,PC-3 prostate,3.08 µM
same,TGI,PC-3 prostate,13.4 µM
same,GI50,A549 NSCLC,2950 nM
same,TGI,A549 NSCLC,15.1 µM
same,GI50,HL-60(TB) leukemia,1780 nM
same,TGI,HL-60(TB) leukemia,4.44 µM
same,GI50,T-47D breast,1860 nM
same,TGI,T-47D breast,6.61 µM
same,GI50,SK-MEL-2 melanoma,1400 nM
same,TGI,SK-MEL-2 melanoma,3.71 µM
same,GI50,SF-268 CNS,2230 nM
same,TGI,SF-268 CNS,9.68 µM
same,GI50,DU-145 prostate,3.01 µM
same,TGI,DU-145 prostate,> 100 µM
same,GI50,EKVX NSCLC,2710 nM
same,TGI,EKVX NSCLC,12.7 µM
same,GI50,SNB-19 CNS,2950 nM
same,TGI,SNB-19 CNS,19.1 µM
same,GI50,SNB-75 CNS,1050 nM
same,TGI,SNB-75 CNS,4.68 µM
same,GI50,MDA-MB-435,2170 nM
same,TGI,MDA-MB-435,7.05 µM
same,GI50,KM12 colon,2570 nM
same,TGI,KM12 colon,6.83 µM
same,GI50,MDA-MB-468 breast,2100 nM
same,TGI,MDA-MB-468 breast,5.51 µM
same,GI50,HS 578T breast,1930 nM
same,TGI,HS 578T breast,6.55 µM
same,GI50,UACC-257 melanoma,1670 nM
same,TGI,UACC-257 melanoma,6.15 µM
same,GI50,NCI-H460 lung,2190 nM
same,TGI,NCI-H460 lung,8.82 µM
same,GI50,HCC-2998 colon,3.28 µM
same,TGI,HCC-2998 colon,11.6 µM
same,GI50,SF-539 CNS,2580 nM
same,TGI,SF-539 CNS,10.6 µM
same,GI50,LOX IMVI melanoma,2890 nM
same,TGI,LOX IMVI melanoma,8.25 µM
same,GI50,786-0 renal,2750 nM
same,TGI,786-0 renal,9.2 µM
same,GI50,HCT-15 colon,2310 nM
same,TGI,HCT-15 colon,10.2 µM
same,GI50,HOP-62 NSCLC,2240 nM
same,TGI,HOP-62 NSCLC,5.38 µM
same,GI50,K-562 leukemia,2010 nM
same,TGI,K-562 leukemia,11.9 µM
same,GI50,MCF7 breast,2480 nM
same,TGI,MCF7 breast,13.9 µM
same,GI50,HT29 colon,4.79 µM
same,TGI,HT29 colon,26.8 µM
same,GI50,UACC-62 melanoma,1290 nM
same,TGI,UACC-62 melanoma,3.72 µM
same,GI50,SR leukemia,2390 nM
same,TGI,SR leukemia,9.53 µM
same,GI50,NCI-H226 lung,2100 nM
same,TGI,NCI-H226 lung,7 µM
same,GI50,OVCAR-3 ovarian,2980 nM
same,TGI,OVCAR-3 ovarian,12.9 µM
